Measured values: PubChem BioAssay AID328 (DTP/NCI, 2004)
“And” between values parts separate entries of the source, which are not always exact repeats. Identical values can stand only once. Inconclusive results and toxic doses are left out.

System: BDF1 mice, P388 leukemia ip, median survival T/C
Test: NCI In Vivo Anticancer Drug Screen. Data for tumor model P388 Leukemia (intraperitoneal) in B6D2F1 (BDF1) mice
Settings: endpoint: median survival time, higher = longer survival
Procedure, shortened: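 Each value expresses how treatment altered survival: treated-mouse outcome over vehicle-mouse outcome, both groups bearing the transplanted tumour.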

[1] = dose: 100.0 mg/kg/injection, schedule: Q01DX009 (ip), vehicle: saline
[2] = dose: 200.0 mg/kg/injection, schedule: Q01DX009 (ip), vehicle: saline
[3] = dose: 400.0 mg/kg/injection, schedule: Q01DX009 (ip), vehicle: saline
[4] = dose: 100.0 mg/kg/injection, schedule: Q01DX001 (ip), vehicle: saline with Tween-80
[5] = dose: 50.0 mg/kg/injection, schedule: Q01DX009 (ip), vehicle: saline with Tween-80
[6] = dose: 100.0 mg/kg/injection, schedule: Q01DX009 (ip), vehicle: saline with Tween-80
[7] = dose: 300.0 mg/kg/injection, schedule: Q01DX009 (ip), vehicle: saline with Tween-80
[8] = dose: 200.0 mg/kg/injection, schedule: Q01DX009 (ip), vehicle: saline with Tween-80
[9] = dose: 50.0 mg/kg/injection, schedule: Q01DX009 (ip), vehicle: Klucel (hydroxypropylcellulose) (HPC)
[10] = dose: 100.0 mg/kg/injection, schedule: Q01DX009 (ip), vehicle: Klucel (hydroxypropylcellulose) (HPC)
[11] = dose: 100.0 mg/kg/injection, schedule: Q04DX003 (ip), vehicle: Klucel (hydroxypropylcellulose) (HPC)
[12] = dose: 200.0 mg/kg/injection, schedule: Q04DX003 (ip), vehicle: Klucel (hydroxypropylcellulose) (HPC)
[13] = dose: 400.0 mg/kg/injection, schedule: Q04DX003 (ip), vehicle: Klucel (hydroxypropylcellulose) (HPC)
[14] = dose: 50.0 mg/kg/injection, schedule: Q04DX003 (ip), vehicle: saline
[15] = dose: 12.5 mg/kg/injection, schedule: Q01DX009 (ip), vehicle: Klucel (hydroxypropylcellulose) (HPC)
[16] = dose: 25.0 mg/kg/injection, schedule: Q01DX009 (ip), vehicle: Klucel (hydroxypropylcellulose) (HPC)
[17] = dose: 50.0 mg/kg/injection, schedule: Q04DX003 (ip), vehicle: Klucel (hydroxypropylcellulose) (HPC)

For `C=C(CCCCC)C(=O)/C=C/c1ccc(Cl)cc1`, the T/C (dose: 100.0 mg/kg/injection, schedule: Q01DX001 (ip), vehicle: Klucel (hydroxypropylcellulose) (HPC)) was 109 % of control, the T/C (dose: 200.0 mg/kg/injection, schedule: Q01DX001 (ip), vehicle: Klucel (hydroxypropylcellulose) (HPC)) was 109 % of control and the T/C (dose: 400.0 mg/kg/injection, schedule: Q01DX001 (ip), vehicle: Klucel (hydroxypropylcellulose) (HPC)) was 118 % of control.
In the case of `CCCCN(S(=O)(=O)C(F)(F)F)S(=O)(=O)C(F)(F)F`, the T/C [1] is reported as 91 % of control, the T/C [2] is reported as 91 % of control and the T/C [3] is reported as 100 % of control.
`C/C(=N/N(C)C)c1nc(N)nc(N)c1-c1ccc(Cl)cc1` was tested, and the T/C (dose: 25.0 mg/kg/injection, schedule: Q01DX001 (ip), vehicle: saline with Tween-80) was 102 % of control, the T/C (dose: 50.0 mg/kg/injection, schedule: Q01DX001 (ip), vehicle: saline with Tween-80) was 109 % of control and the T/C [4] was 90 % of control and 96 % of control.
`CCCCCC(CN(C)C)C(O)/C=C\c1ccccc1` (configuration not stated) was tested, and the T/C (dose: 3.13 mg/kg/injection, schedule: Q01DX009 (ip), vehicle: saline) was 100 % of control, the T/C (dose: 6.25 mg/kg/injection, schedule: Q01DX009 (ip), vehicle: saline) was 117 % of control and the T/C (dose: 12.5 mg/kg/injection, schedule: Q01DX009 (ip), vehicle: saline) was 119 % of control. The T/C (dose: 50.0 mg/kg/injection, schedule: Q01DX009 (ip), vehicle: saline) was 104 % of control and the T/C [1] was 99 % of control.
In the case of `Nc1ccc(/C=C2\C=Cc3ccccc32)cc1`, the T/C (dose: 17.75 mg/kg/injection, schedule: Q04DX003 (ip), vehicle: saline sonified) is reported as 100 % of control, the T/C (dose: 18.75 mg/kg/injection, schedule: Q01DX009 (ip), vehicle: saline with Tween-80) is reported as 90 % of control and the T/C (dose: 37.5 mg/kg/injection, schedule: Q01DX009 (ip), vehicle: saline with Tween-80) is reported as 100 % of control. The T/C (dose: 37.5 mg/kg/injection, schedule: Q04DX003 (ip), vehicle: saline sonified) was 100 % of control and the T/C (dose: 75.0 mg/kg/injection, schedule: Q04DX003 (ip), vehicle: saline sonified) was 95 % of control.
For `COCC(O)CN1CCN(c2ccccc2C)CC1` (configuration not stated), the T/C (dose: 25.0 mg/kg/injection, schedule: Q01DX009 (ip), vehicle: saline with Tween-80) was 87 % of control, the T/C [5] was 95 % of control and the T/C [6] was 91 % of control.
With `C/C(=N\NC(=O)CC(=O)N/N=C(\C)c1ccncc1)c1ccncc1` the T/C (dose: 75.0 mg/kg/injection, schedule: Q01DX009 (ip), vehicle: saline with Tween-80) was 99 % of control, the T/C (dose: 150.0 mg/kg/injection, schedule: Q01DX009 (ip), vehicle: saline with Tween-80) was 90 % of control and the T/C [7] was 94 % of control.
`Cn1c(-c2ccccc2)nc2ccccc2c1=O` was tested, and the T/C [5] was 90 % of control, the T/C [6] was 97 % of control and the T/C [8] was 101 % of control.
With `OC(CBr)C(O)C(O)C(O)CBr` (configuration not stated) the T/C [9] was 105 % of control, the T/C (dose: 62.5 mg/kg/injection, schedule: Q01DX010 (ip), vehicle: saline) was 104 % of control and the T/C (dose: 125.0 mg/kg/injection, schedule: Q01DX001 (ip), vehicle: carboxymethylcellulose (CMC)) was 120 % of control. For the same compound, the T/C (dose: 125.0 mg/kg/injection, schedule: Q01DX010 (ip), vehicle: carboxymethylcellulose (CMC)) was 105 % of control, the T/C (dose: 125.0 mg/kg/injection, schedule: Q01DX010 (ip), vehicle: saline) was 108 % of control and the T/C (dose: 250.0 mg/kg/injection, schedule: Q01DX010 (ip), vehicle: carboxymethylcellulose (CMC)) was 110 % of control. The T/C (dose: 250.0 mg/kg/injection, schedule: Q01DX010 (ip), vehicle: saline) was 91 % of control, the T/C (dose: 400.0 mg/kg/injection, schedule: Q01DX009 (ip), vehicle: Klucel (hydroxypropylcellulose) (HPC)) was 87 % of control and the T/C (dose: 1000.0 mg/kg/injection, schedule: Q01DX001 (ip), vehicle: carboxymethylcellulose (CMC)) was 170 % of control.
`CC1CN1P(=S)(Oc1ccccc1)N1CC1C` (configuration not stated) was tested, and the T/C [8] was 150 % of control, the T/C (dose: 264.0 mg/kg/injection, schedule: Q01DX009 (ip), vehicle: saline with Tween-80) was 122 % of control and the T/C [7] was 155 % of control. The T/C (dose: 400.0 mg/kg/injection, schedule: Q01DX009 (ip), vehicle: saline with Tween-80) was 150 % of control.
With `CN(c1ccccc1)c1ccc([N+](=O)[O-])c2no[n+]([O-])c12` the T/C (dose: 15.0 mg/kg/injection, schedule: Q01DX009 (ip), vehicle: saline with Tween-80) was 106 % of control and the T/C (dose: 30.0 mg/kg/injection, schedule: Q01DX009 (ip), vehicle: saline with Tween-80) was 118 % of control.
With `CC(C)(C)NC(C1=CC(C)(C)c2ccccc2C1=O)c1ccccc1` (configuration not stated) the T/C [10] was 105 % of control, the T/C [11] was 100 % of control and the T/C (dose: 200.0 mg/kg/injection, schedule: Q01DX009 (ip), vehicle: Klucel (hydroxypropylcellulose) (HPC)) was 110 % of control. The T/C [12] was 95 % of control and the T/C [13] was 90 % of control.
`S=C(Nc1cc2c3c(c1)CCCN3CCC2)Nc1cc2c3c(c1)CCCN3CCC2` was tested, and the T/C [4] was 109 % of control, the T/C (dose: 200.0 mg/kg/injection, schedule: Q01DX001 (ip), vehicle: saline with Tween-80) was 100 % of control and the T/C (dose: 400.0 mg/kg/injection, schedule: Q01DX001 (ip), vehicle: saline with Tween-80) was 95 % of control.
For `CN(CCC#N)C1=CCCC1`, the T/C [14] was 100 % of control, the T/C (dose: 100.0 mg/kg/injection, schedule: Q04DX003 (ip), vehicle: saline) was 100 % of control and the T/C (dose: 200.0 mg/kg/injection, schedule: Q04DX003 (ip), vehicle: saline) was 100 % of control.
For `ClC(Cl)(Cl)c1ccc(C(Cl)(Cl)Cl)cc1`, the T/C (dose: 6.0 mg/kg/injection, schedule: Q01DX009 (ip), vehicle: Klucel (hydroxypropylcellulose) (HPC)) was 100 % of control, the T/C (dose: 6.25 mg/kg/injection, schedule: Q01DX009 (ip), vehicle: Klucel (hydroxypropylcellulose) (HPC)) was 90 % of control and the T/C (dose: 12.0 mg/kg/injection, schedule: Q01DX009 (ip), vehicle: Klucel (hydroxypropylcellulose) (HPC)) was 104 % of control. The T/C [15] was 90 % of control, the T/C (dose: 12.5 mg/kg/injection, schedule: Q04DX003 (ip), vehicle: Klucel (hydroxypropylcellulose) (HPC)) was 105 % of control and the T/C (dose: 22.0 mg/kg/injection, schedule: Q04DX003 (ip), vehicle: Klucel (hydroxypropylcellulose) (HPC)) was 96 % of control and 118 % of control. For the same compound, the T/C [16] was 104 % of control, the T/C (dose: 25.0 mg/kg/injection, schedule: Q04DX003 (ip), vehicle: Klucel (hydroxypropylcellulose) (HPC)) was 120 % of control and the T/C (dose: 33.0 mg/kg/injection, schedule: Q04DX003 (ip), vehicle: Klucel (hydroxypropylcellulose) (HPC)) was 119 % of control and 122 % of control. For the same compound, the T/C [9] was 90 % of control and 100 % of control, the T/C (dose: 75.0 mg/kg/injection, schedule: Q04DX003 (ip), vehicle: Klucel (hydroxypropylcellulose) (HPC)) was 100 % of control and the T/C [10] was 100 % of control. The T/C (dose: 150.0 mg/kg/injection, schedule: Q04DX003 (ip), vehicle: Klucel (hydroxypropylcellulose) (HPC)) was 109 % of control, the T/C (dose: 250.0 mg/kg/injection, schedule: Q04DX003 (ip), vehicle: Klucel (hydroxypropylcellulose) (HPC)) was 100 % of control and the T/C [13] was 104 % of control.
With `COc1ccc(OC)c(/C=C/[N+](=O)[O-])c1` the T/C [15] was 108 % of control, the T/C [16] was 113 % of control and 120 % of control and the T/C [9] was 113 % of control. The T/C [10] was 116 % of control.
With `CNc1nc2ncn(C)c2c(=O)[nH]1` the T/C [1] was 100 % of control, the T/C [2] was 109 % of control and the T/C [3] was 95 % of control.
For `Cc1cnc2c(N)[nH]nc2n1`, the T/C [17] was 86 % of control, the T/C [11] was 109 % of control and the T/C [12] was 100 % of control.
For `COC(OC)C1(O)CC(C(C)COC2CCCCO2)OC(=O)N1` (configuration not stated), the T/C [17] was 102 % of control, the T/C [11] was 106 % of control and the T/C [12] was 106 % of control.
For `CC1(C)N=C(N)N=C(N)N1c1cccc(Br)c1`, the T/C (dose: 2.7 mg/kg/injection, schedule: Q04DX003 (ip), vehicle: saline) was 100 % of control, the T/C (dose: 4.0 mg/kg/injection, schedule: Q04DX003 (ip), vehicle: saline) was 90 % of control and the T/C (dose: 33.0 mg/kg/injection, schedule: Q04DX003 (ip), vehicle: saline) was 168 % of control. For the same compound, the T/C [14] was 177 % of control and 179 % of control and the T/C (dose: 75.0 mg/kg/injection, schedule: Q04DX003 (ip), vehicle: saline) was 90 % of control.
